Columns and labels:
[1] = LC-MS; format: in vivo, human; conditions: for plasma concentration (mean ± SD): fasted baseline plasma, 90 volunteers; for concentrations detected in plasma: individual volunteers, ESI Fig. S4
[2] = cited from earlier work
[3] = LC-MS; format: in vivo, human; conditions: given as x : 1; plasma versus CSF concentrations

SMILES | plasma concentration (mean ± SD) [1] [µM] | plasma : CSF ratio [3] | further results
O=C(O)CNC(=O)c1ccccc1 [hippuric acid] | 387 ± 243 |  | 
O=C(O)c1cccc(O)c1 [3-Hydroxybenzoic acid] |  |  | CSF concentration reported by a previous study [2]: 58.5 nM
O=c1ccc2ccc(O)c(O)c2o1 [7,8-Dihydroxycoumarin] |  | 5 | concentrations detected in plasma [1]: below 1 μM
Cn1c(=O)[nH]c(=O)c2[nH]cnc21 [3-Methylxanthine] | 5.3 ± 3.8 |  | 
Cn1c(=O)c2c(ncn2C)n(C)c1=O [1,3,7-Trimethylxanthine, reference compound] | 179 ± 118 |  | 
Oc1cc(O)c2c(c1)O[C@H](c1ccc(O)c(O)c1)[C@H](O)C2 [(−)-Epicatechin] |  | 24 | concentrations detected in plasma [1]: below 1 μM
CCOC(=O)c1cc(O)c(O)c(O)c1 [3,4,5-trihydroxybenzene ethyl ester] | 0.0053 ± 0.0041 |  | 
Cn1c(=O)c2[nH]cnc2n(C)c1=O [1,3-Dimethylxanthine, reference compound] |  | 620 | 
